Assay results reported in ChEMBL document CHEMBL1143522, “Antimalarial benzo[c]phenanthridines” (Bioorg Med Chem Lett, 2005).

How the values were obtained:
Plasmodium falciparum [1] = assay: […] against Plasmodium falciparum strains K39 and V1/S; format: functional
Plasmodium falciparum [2] = assay: In vitro inhibitory concentration against chloroquine-resistant Plasmodium falciparum V1/S; format: functional, organism-based
Plasmodium falciparum [3] = assay: In vitro inhibitory concentration against chloroquine-sensitive Plasmodium falciparum K39; format: functional, organism-based
Plasmodium falciparum [4] = assay: In vitro inhibition against chloroquine-resistant Plasmodium falciparum V1/S; Range 0.1-0.4 uM; format: functional, organism-based
Plasmodium falciparum [5] = assay: In vitro inhibition against chloroquine-sensitive Plasmodium falciparum K39; Range 0.1-0.4 uM; format: functional, organism-based
[6] = In vitro toxicity against B82 fibroblast cells; format: cell-based; conditions: mouse, read-out: LD50 (the source's name)

Structure (SMILES)	Ratio (Plasmodium falciparum [1])	IC50 (Plasmodium falciparum [2]) [nM]	IC50 (Plasmodium falciparum [3]) [nM]	IC50 (Plasmodium falciparum [4]) [nM]	IC50 (Plasmodium falciparum [5]) [nM]	CC50 [6] [µg/mL]
CCOc1cc2c3cc(OC)c(OC)cc3c[n+](C)c2c2cc(OC)c(O)cc12.CS(=O)(=O)[O-]	1	120	120			
CC[n+]1cc2cc(OC)c(OC)cc2c2ccc3cc(OC)c(OC)cc3c21.[I-]	1.3	120	90			
COc1cc2c[n+](C)c3c4cc(OC)c(OC)cc4ccc3c2cc1OC.CS(=O)(=O)[O-]	4.2	300	70			
CCOc1cc2ccc3c4cc(OC)c(OC)cc4c[n+](C)c3c2cc1OC.CS(=O)(=O)[O-]	0.9	740	800			
COc1cc2c[n+](C)c3c4cc(OC)c(OC)cc4c(OCC4OCC(Br)([N+](=O)[O-])CO4)cc3c2cc1OC.CS(=O)(=O)[O-] (stereo not drawn)	1.9	1840	1000			
COc1cc2c[n+](C)c3c4cc5c(cc4ccc3c2cc1OC)OCO5 [NITIDINE CHLORIDE]				400	400	
COc1cc2ccc3c4cc(OC)c(SC)cc4c[n+](C)c3c2cc1OC.CS(=O)(=O)[O-]	4.7	900	190			
COc1cc2c[n+](C)c3c4cc(OC)c(OC)cc4c4occc4c3c2cc1OC.CS(=O)(=O)[O-]	11.3	110	9			
CCOc1cc2c3cc(OC)c(OC)cc3c[n+](CC)c2c2cc(OC)c(OC)cc12.[I-]	1.4	50	40			3.2
CCOc1cc2c3cc(OC)c(OC)cc3c[n+](C)c2c2cc(OC)c(OC)cc12.CS(=O)(=O)[O-]	1	260	260			
COc1cc2c(ccc3c4cc(OC)c(OC)cc4c[n+](C)c23)cc1O.CS(=O)(=O)[O-]	0.8	1800	2300			
